From ChEMBL document CHEMBL1201862, “PubChem BioAssay data set” (2004)
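In this assay, cells in 96-well plates receive the compound at five concentrations for 48 hours. Endpoints are linearly interpolated between the surrounding concentrations. Abbreviation: GI50, concentration required for 50% inhibition of growth.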 Activity calls are given as the source filed them. Rule as the data show it: active = GI50 up to about 1.1 µM and inactive = higher.

Tests used:
Assay in all cases: NCI-60 cell line screen, 48 h
[1] = test system: PC-3
[2] = test system: TK-10
[3] = test system: SNB-75
[4] = test system: EKVX
[5] = test system: NCI-H460
[6] = test system: COLO 205
[7] = test system: MDA-MB-435
[8] = test system: OVCAR-4
[9] = test system: SW-620
[10] = test system: LOX IMVI
[11] = test system: SK-MEL-28
[12] = test system: M14
[13] = test system: HCT-116
[14] = test system: NCI-H522
[15] = test system: HL-60
[16] = test system: SR
[17] = test system: SNB-19
[18] = test system: MCF7
[19] = test system: UACC-257
[20] = test system: SK-MEL-2

Measured: GI50

COC(=O)C1(NC(=O)C(CC(=O)OCc2ccccc2)NC(=O)OCc2ccccc2)CCCCCC1 (stereo not given)
inactive: [1] 28.6 µM | [2] 67.8 µM | [3] 35.1 µM | [4] 47.6 µM | [5] 34.8 µM | [6] 21.1 µM | [7] 28.8 µM | [8] 14.1 µM | [9] 42.8 µM | [10] 24.8 µM | [11] 26.3 µM | [12] > 100 µM | [13] 31 µM | [14] 69.3 µM | [15] 17.7 µM | [16] 18.4 µM | [17] 51.8 µM | [18] 33 µM

CN(/N=C/c1ccc(Cl)c(Cl)c1)C1=NCCN1
inactive: [1] 11.9 µM | [2] 46.2 µM | [3] 15.8 µM | [4] 59 µM | [5] 40.8 µM | [6] 17.7 µM | [7] 19.5 µM | [8] 41.2 µM | [9] 16 µM | [10] 12.4 µM | [19] 20.1 µM | [12] 16.5 µM | [13] 17.9 µM | [14] 13.8 µM | [16] 31.2 µM | [17] 55.8 µM | [20] 18.5 µM | [18] 22.9 µM

N#Cc1[nH]c(=O)n(-c2cccc3ccccc23)c1N
inactive: [1] > 10 µM | [2] > 10 µM | [4] > 10 µM | [5] > 10 µM | [6] > 10 µM | [7] > 10 µM | [8] > 10 µM | [9] > 10 µM | [10] > 10 µM | [19] > 10 µM | [11] > 10 µM | [12] > 10 µM | [13] > 10 µM | [14] > 10 µM | [15] > 10 µM | [16] > 10 µM | [17] > 10 µM | [20] > 10 µM | [18] > 10 µM

Oc1c(Cl)cc(CN(Cc2cc(Cl)c(O)c(Cl)c2)C2CCCCC2)cc1Cl
inactive: [1] > 100 µM | [2] > 100 µM | [3] > 100 µM | [4] > 100 µM | [5] > 100 µM | [6] > 100 µM | [7] > 100 µM | [8] > 100 µM | [9] > 100 µM | [10] > 100 µM | [19] > 100 µM | [11] > 100 µM | [12] > 100 µM | [13] > 100 µM | [14] > 100 µM | [16] > 100 µM | [17] > 100 µM | [20] > 100 µM | [18] > 100 µM

CC(C)(O)/C=C\P(=O)(O)O
inactive: [1] > 100 µM | [2] > 100 µM | [3] > 100 µM | [4] > 100 µM | [5] > 100 µM | [6] > 100 µM | [7] > 100 µM | [8] > 100 µM | [9] > 100 µM | [10] > 100 µM | [19] > 100 µM | [11] > 100 µM | [12] > 100 µM | [13] > 100 µM | [14] > 100 µM | [16] > 100 µM | [17] > 100 µM | [20] > 100 µM | [18] > 100 µM

COc1ccc(/C=C2\C(=O)N(C)C(=O)c3cc(OC)c(OC)cc32)cc1OC
inactive: [1] 49.7 µM | [2] 43.1 µM | [4] 10.7 µM | [5] 37.5 µM | [6] 16.4 µM | [7] 34.5 µM | [8] 38.9 µM | [9] 36.6 µM | [10] 16 µM | [19] 47.3 µM | [12] 65.2 µM | [13] 29.4 µM | [14] 15.7 µM | [15] 14.5 µM | [16] 19.2 µM | [17] 43.3 µM | [20] 35.6 µM | [18] 27.2 µM

CNC(=O)C(NC(=O)[C@H](CC(C)C)NC(=O)[C@@H](S)CCN1C(=O)N(C)C(C)(C)C1=O)C(C)(C)C (stereo not given in full)
inactive: [1] > 100 µM | [2] > 100 µM | [4] > 100 µM | [5] > 100 µM | [7] > 100 µM | [8] > 100 µM | [9] > 100 µM | [10] 2.91 µM | [19] > 100 µM | [11] > 100 µM | [12] > 100 µM | [13] > 100 µM | [14] > 100 µM | [15] > 100 µM | [16] > 100 µM | [17] > 100 µM | [20] > 100 µM | [18] > 100 µM

CCOC(=O)N1CCC2(CC1)C[C@](C)(C(C)=O)C(C)O2 (stereo not given in full)
inactive: [1] > 100 µM | [2] > 100 µM | [4] > 100 µM | [5] > 100 µM | [6] > 100 µM | [7] > 100 µM | [8] > 100 µM | [9] > 100 µM | [10] > 100 µM | [19] > 100 µM | [11] > 100 µM | [12] > 100 µM | [14] > 100 µM | [15] 2.81 µM | [16] > 100 µM | [17] > 100 µM | [20] > 100 µM | [18] > 100 µM

Cc1cc(C)nc(NC(=O)c2ccc(Br)s2)c1
inactive: [1] > 100 µM | [2] > 100 µM | [3] 47.8 µM | [4] 76.7 µM | [5] > 100 µM | [6] 10.6 µM | [7] 79.1 µM | [8] > 100 µM | [9] > 100 µM | [10] 35.3 µM | [19] > 100 µM | [11] > 100 µM | [12] 21.3 µM | [13] 10.7 µM | [14] > 100 µM | [16] > 100 µM | [17] > 100 µM | [20] > 100 µM | [18] 28 µM

CC(=O)OC1CCC2(C)C(=CC(C3C=C4CC(OC(C)=O)CCC4(C)C4=C3C3CC5OC6(CCC(C)CO6)C(C)C5C3(C)CC4)C3=C2CCC2(C)C3CC3OC4(CCC(C)CO4)C(C)C32)C1 (stereo not given)
inactive: [1] 12.9 µM | [2] 14.5 µM | [3] 16.3 µM | [4] 17.9 µM | [6] 17.6 µM | [7] 14.1 µM | [8] 14 µM | [10] 16.5 µM | [19] 10.2 µM | [11] 17.7 µM | [12] 14 µM | [13] 15.1 µM | [14] 6.17 µM | [16] 11.9 µM | [17] 16.7 µM | [20] 16.5 µM | [18] 10.3 µM

COC1=C2C[C@](OC)(C#CC=CC#CC2O)CC1(C)C (stereo not given in full)
inactive: [1] > 100 µM | [2] > 100 µM | [3] > 100 µM | [4] > 100 µM | [5] > 100 µM | [6] > 100 µM | [7] > 100 µM | [9] > 100 µM | [10] > 100 µM | [19] > 100 µM | [11] > 100 µM | [13] > 100 µM | [14] > 100 µM | [15] 55 µM | [16] 56.4 µM | [17] > 100 µM | [18] > 100 µM
